Experimental data as given in patent US12103946B2, “Steroid compounds as Treg modulators and uses thereof” (New York University, priority 2018, dated 2024).
Entries after “also recorded” stand apart in the source; their conditions may differ.

Columns and labels:
[1] = system: naïve CD4+ T cells (Treg differentiation, FoxP3); assay: In vitro Treg differentiation, FoxP3 staining by flow cytometry; format: cell-based, mouse
From the text: To determine if bile acids influence T cell functions, the present inventors performed a small-scale screening assay with a small molecule library comprising secondary bile acids with in vitro Treg differentiation as a read-out. Naïve CD4^+ T lymphocytes were sorted from wild-type B6 mice and cultured in the presence of a TCR stimulus, interleukin 2 (IL-2), and different amounts of TGFβ (optimized for Treg differentiation). Treg differentiation was quantified at the single cell level by staining with an antibody specific for FoxP3, followed by flow cytometry analysis. Retinoic acid, a known enhancer of Treg differentiation, was used as a positive control.
(§1) Our screen included both primary bile acids, synthesized by the host, and secondary bile acids, produced by bacterial modification of primary bile acids (FIG. 5). Naïve CD4^+ T cells were isolated from wild-type C57BL/6J (B6) mice and cultured with bile acids under Th17 differentiation conditions and, as a counter-screen, Treg differentiation conditions (FIG. 6).
(§2) In Vitro T Cell Culture. Naïve CD4^+ (CD62L^+ CD44^− CD25^− CD4^+) T cells were isolated from the spleens and the lymph nodes of mice of designated genotypes with FACS sorting. For certain experiments, naïve CD4^+ T cells were enriched using naïve CD4^+ T cell isolation kits (Miltenyi). Naïve CD4^+ T cells (40,000 cells) were cultured in a 96-well plate pre-coated with hamster IgG (MP Biomedicals) in T cell medium (RPMI, 10% fetal bovine serum, 25 mM glutamine, 55 μM 2-mercaptoethanol, 100 U/mL penicillin, […] streptomycin) supplemented with 0.25 μg/mL anti-CD3 (clone 145-2C11) and 1 μg/mL anti-CD28 (clone 37.51). For Th0 culture, T cells were cultured with the addition of 100 U/mL of IL-2 (PEPROTECH). For Th1 cell differentiation, T cells were cultured with the addition of 100 U/mL of IL-2, 10 μg/mL of anti-IL-4 (clone 11B11) and 10 ng/mL of IL-12 (PEPROTECH). For Th2 cell differentiation, T cells were cultured with the addition of 10 μg/mL of anti-IFNγ (clone XMG1.2) and 10 ng/mL of IL-4 (R&D Systems). For Th17 cell differentiation, T cells were cultured with the addition of 10 ng/mL of IL-6 (eBioscience) and 0.5 ng/mL of TGF-β (PEPROTECH). For Treg culture, T cells were cultured with the addition of 100 U/mL of IL-2 and various concentrations of TGF-β. […] Bile acids, retinoic acid (Sigma) or mitoQ (Focus Biomolecules), or mitoPQ (Sigma) were added either at 0 or 16 h time points. Compounds with low water solubility were sonicated before adding to the culture. Cells were harvested and assayed by flow cytometry on day 3. For ROS and mitochondrial membrane potential detection, cells cultured for 2 days were incubated with 5 μM of mitoSOX (ThermoFisher), 10 μM of DCFDA (Sigma) or 2 μM of JC-1 (ThermoFisher) for 30 min and assayed with flow cytometry.
(§3) Flow Cytometry. Cells harvested from in vitro culture or in vivo mice experiments were stimulated with 50 ng/mL PMA (Phorbol 12-myristate 13-acetate, Sigma) and 1 μM ionomycin (Sigma) in the presence of GolgiPlug (BD) for 4 h to determine cytokine expression. After stimulation, cells were stained with cell surface marker antibodies and LIVE/DEAD Fixable dye, Aqua, to exclude dead cells, fixed and permeabilized with a FoxP3/Transcription factor staining kit (eBioscience), followed by staining with cytokine- and/or transcription factor-specific antibodies. All flow cytometry analyses were performed on an LSR II flow cytometer (BD) and data were analyzed with FlowJo software (TreeStar).

[2] = system: lamina propria CD4+ T cells (Th17, Treg); assay: Anti-CD3 injection gut inflammation model, bile acid diet; format: in vivo, mouse; settings: 1% diet
Description: (§4) Data are shown as the mean±standard deviation by unpaired t-test with 2-tailed p-value.
(§5) Cells were then analyzed by flow cytometry.

[3] = system: naïve CD4+ T cells (Th17 differentiation, IL-17a); assay: In vitro Th17 differentiation, IL-17a staining by flow cytometry; format: cell-based, mouse
From the text: as §1, §2, §3

[4] = Bile acid quantification in mouse cecal contents by UPLC-MS; settings: mice fed 0.3% (w/w) 3-oxoLCA chow for one week
From the text: as §4

[5] = system: fusion protein of RORγt and Gal4-DBD; assay: RORγt luciferase reporter assay in HEK293 cells; format: cell-based, human; settings: ML209 2 μM, bile acids 10 μM
Description: as §4
We next examined if 3-oxoLCA physically interacts with the RORγt protein in vitro. A microscale thermophoresis (MST) assay was performed with recombinant human RORγt ligand-binding domain (LBD). […] Next, we examined if 3-oxoLCA modulates the transcriptional activity of RORγt. We assayed the effect of the bile acids on firefly luciferase expression directed by a fusion protein of RORγt and Gal4-DBD (DNA-binding domain) in human embryonic kidney (HEK) 293 cells^14.

CD4+ T cells = system: CD4+ T cells
From the text: Representative FACS plots of CD4^+ T cells cultured for 3 days and stained intracellularly for FoxP3 (e). Quantification of FoxP3^+ and viable T cells after 3-day culture (f) (n=2/group). n, number of biologically independent samples. Data are representative of two independent experiments (b, d). Data in (c) are shown as the mean±standard deviation.
Naïve CD4^+ T cells were isolated from FoxP3-IRES-GFP mice. d, Flow cytometry of CD4^+ T cells stained intracellularly for FoxP3. Naïve CD4^+ T cells isolated from WT, CNS1, CNS2 or CNS3 knockout mice (n=3/group) were cultured with anti-CD3/28 and IL-2, LCA (20 μM), TGF-β (0.05 ng/ml) and additional retinoic acid (RA; 1 ng/ml). e and f, Flow cytometry (e) and its quantification (f) of CD4^+ T cells stained intracellularly for FoxP3. […] Data are representative of two independent experiments (c, d). Data are shown as the mean±standard deviation by unpaired t-test with 2-tailed p-value.
as §3

[6] = system: ileal lamina propria Th17 and Treg cells; assay: SFB-dependent Th17 cells in mice fed bile acid diet; format: in vivo, mouse; settings: 0.3% diet
Description: as §4, §5

[7] = system: colon lamina propria Th17 cells; assay: Citrobacter rodentium infection of germ-free mice; format: in vivo, mouse; settings: germ-free B6 mice, C. rodentium, 0.3% diet
From the text: For the box plots (a, b), the three horizontal lines of the box represent the third quartile, median and first quartile, respectively from top to bottom. […] Mice were fed an autoclaved diet with or without 3-oxoLCA (0.3%) (n=9 mice/group).

[8] = Measurement of lipophilicity (octanol/ammonium bicarbonate partitioning, LC-MS); settings: n-octanol / 50 mM ammonium bicarbonate, pH 8
Description: Measurement of lipophilicity. Partitioning Method: 2 μL of 10 mM stock solutions of each target compound was added to a 1 mL each of 50 mM ammonium bicarbonate (pH=8), and 1 mL of n-octanol in an Eppendorf tube. The resulting two-phase mixture was vortexed and then shaken for 18 h at 20° C. The two phases were then carefully separated into the aqueous sample (bottom layer), and organic sample (top-layer) and placed separately in autosampler vials and analyzed by LC-MS/MS. LC-MS Method: a Thermo q-Exactive Plus LC-MS equipped with an Ultimate 3000 HPLC was operated in negative ion mode after optimized to detect the [M− H]^− of the bile acids. […] A Dikma Inspire C8 column (3 μm particle size, 100 mm length, 4.6 mm ID) was used for analysis. Each injection was 5 μL, and a constant flow rate of 0.400 L/min was used. The gradient started at 0% B and was held constant for 2 minutes. Then the mobile phase composition was linearly changed to 100% B over 8 minutes and held at 100% for the following 5 minutes. The mobile phase composition was changed to 0% B over the following 0.1 minutes and the system was allowed to equilibrate to starting conditions over 1.9 minutes. Standards of all targets were used to establish retention times. Better than 2 ppm mass accuracy was obtained on all measurements. The LC-MS analysis was done in triplicate, while the partitioning was done once for each target's [M− H]^− ion. Calculation of log D: the total response of target in octanol was divided by the total response in the aqueous phase to get a partitioning coefficient. Then, log base 10 was taken and reported.

Structure (SMILES): C[C@H](CCC(=O)O)[C@H]1CC[C@H]2[C@@H]3CC[C@@H]4CC(=O)CC[C@]4(C)[C@H]3CC[C@]12C [3-oxoLCA, 3-oxolithocholic acid]
- effect on Treg differentiation induced by isoalloLCA ([1]; 3-oxoLCA 20 μM + isoalloLCA 20 μM): further enhanced Treg differentiation induced by isoalloLCA in vitro
- Treg differentiation (FoxP3 expression) ([1]; bile acids 20 μM, 3 days, anti-CD3/28, IL-2): did not affect Tregs
- Th17 cell levels after anti-CD3 injection [2]: reduced Th17 cell levels
- suppression of Th17 cells in VDR or FXR knockout cells ([3]; 20 μM): VDR and FXR also failed to contribute to the suppressive activities
- Th17 cell differentiation (IL-17a) ([3]; bile acids 20 μM, 3 days, IL-6 and TGF-β): dose-dependent effects; also recorded: inhibited Th17 differentiation
- average concentration in cecal contents [4]: 24 picomol/mg of wet mass
- RORγt reporter activity [5]: significantly reduced the RORγt reporter activity
- cell viability (CD4+ T cells): do not significantly affect cell proliferation, cell viability
- percentage of ileal Th17 cells ([6]; Jax-B6 mice gavaged with SFB, one week): significantly reduced the percentage of ileal Th17 cells
- Th17 cell percentages ([6]; Tac-B6 mice with pre-existing SFB, 7 days): reduced levels of Th17 cell percentages
- Treg percentages ([6]; Tac-B6 mice, 7 days): did not affect Treg percentages
- Th17 cell induction in the colon [7]: reduced Th17 cell induction in the colons of germ-free B6 mice infected with Citrobacter rodentium
- logD at 18 h [8]: 2.4
